From paper PMC3765824, “Trough colistin plasma level is an independent risk factor for nephrotoxicity: a prospective observational cohort study” (BMC Infectious Diseases, 2013)
Read-outs that look alike come from different tables or passages of the source. Bridge positions count the residues as written; N and C are the ends. Square brackets hold non-standard residues; d marks the D form. Peptide text beside a SMILES is read from it. * marks the point of attachment. X1 = CC[C@H](C)CCCCC(=O)*; Dab = NCC[C@H](N)C(=O)O

Legend:
[1] = Colistin plasma concentrations at steady state (HPLC); assay type: in vivo, patients; settings: human; for Cmax: intravenous; for level at 72 h: iv
Procedure: Evaluation of the colistin concentration in plasma was performed after 3 days of treatment, when the colistin concentrations had reached steady state. The samples were immediately centrifuged (3000 g for 10 minutes) and the plasma was stored at −80°C until analysis. Colistin plasma trough concentrations (Cmin) were measured just before the next dose. Maximum plasma concentrations (Cmax) were taken 30 minutes after the end of the CMS infusion (1 h after the start of infusion).
Colistin concentrations in plasma were determined using a validated high-performance liquid chromatography (HPLC) method as described by Li et al., with minor modifications. After protein precipitation, the samples were centrifuged (14000 g, 5 min) and the supernatant transferred to solid phase extraction (SPE) C18 cartridges (Sep-Pak, Waters, Milford, MA, USA), in which derivation with 9-fluorenylmethyl chloroformate (FMOC-Cl) was performed. Elution of the fluorescence derivatives was performed with acetone mixed with acetonitrile and boric acid. Finally, 20 μl of the mixture was injected into the HPLC. The HPLC system was made up of Waters equipment that included a Waters 2475 multi-λ Fluorescence Detector, a Waters 1525 binary pump with column heater, a Waters degasser, and a Waters 717 autoinjector sampler. The stationary phase was a Waters SunFire column C18, 4.6 × […], 5 μm. The mobile phase was a mixture of acetonitrile, tetrahydrofuran and water delivered at an isocratic flux of 1 mL/min. The chromatogram run time was 20 minutes and the detector setting was excitation wavelength 260 nm and emission wavelength 315 nm. The concentrations of colistin were calculated by multiplying the obtained colistin sulfate plasma concentrations by 1163/1403 (1163 being the average molecular weight of colistin A and B, which are the greater part of the products, and 1403 the average molecular weight of colistin sulfate). The colistin plasma concentration in each patient was calculated as the sum of colistin A and B, the two main components. Calibration curves were linear in the range 0.1-8 mcg/ml and the accuracy quality control samples varied from 90–110 % of the nominal concentration for intraday and interday analysis, with a precision (CV%) of 10% or less. The limit of quantification was 0.1 mcg/ml and the limit of detection was 0.05 mcg/mL.

[2] = tested on: patients receiving intravenous colistin methanesulfonate sodium (CMS); assay: Colistin-associated nephrotoxicity: AKI by RIFLE criteria during CMS treatment; assay type: in vivo; settings: for N° (%) of patients fulfilling criterion: ESKD (E) / N° (%) of patients fulfilling criterion: Failure (F) / N° (%) of patients fulfilling criterion: Injury (I) / N° (%) of patients fulfilling criterion: Loss (L) / N° (%) of patients fulfilling criterion: No injury / N° (%) of patients fulfilling criterion: Risk (R): RIFLE
Procedure: (§1) This prospective observational study was performed at a 400-bed acute-care university hospital in Barcelona, Spain. A pharmacy-generated alarm system was used to identify patients on CMS treatment for therapy of infections caused by MDR-GNB. From January 2010 to June 2011, patients (>18 years) were included if they had received colistin methanesulfonate sodium (CMS) for at least 4 days. Patients were excluded if they were receiving renal replacement therapy prior to the initiation of CMS.
CMS for injection was used and dosed in millions of international units (IU) throughout the study. The drug was administered intravenously in 100 mL normal saline over 30 minutes in the commercially available colistimethate formulation for injection (GES Genéricos Españoles ®), with each vial containing 80 mg CMS (equivalent to 1 million international units of CMS). Dose selection was based on the individual criteria of the responsible clinicians, who were not aware that this study was being performed. Although there were some dose adjustments based on baseline renal function, common colistin doses ranged from 1 to 3 million international units (IU) every 8 hours (3–9 million IU daily). Dose adjustments were made according to the package insert’s recommended dosing as follows: GFR ≥ 76 mL/min/1.73 m^2, 4–6 million IU daily in three doses; GFR 40 to 75 mL/min/1.73 m^2, 2–3 million IU daily in 2 doses; GFR 25 to 40 mL/min/1.73 m^2, 1.5-2 million IU daily divided in 1 or 2 doses and; GFR < 25 mL/min/1.73 m^2 , 0.6-1 million of IU daily every 36 hours.
Serum creatinine level and estimated glomerular filtration rate (GFR) were recorded at baseline, on day 7 and at the end of treatment (EOT). We chose these set points because blood tests are done routinely for all inpatients at least once a week and at the end of treatment. The abbreviated Modification of Diet in the Renal Disease Equation (MDRD-4) was used to calculate GFR. Chronic kidney disease (CKD) at baseline was considered if GFR was < 60 mL/min/1.73 m^2 for ≥ 3 months. Patients with increased creatinine (> 1.4 mg/dL) or GFR < 90 mL/min/1.73 m^2 at admission and no prior data regarding chronicity were considered as having acute renal failure due to any cause. The RIFLE criteria (risk, injury, failure, loss, and end-stage kidney disease), estimated with exclusion of the urinary output criterion, were used for detection and stratification of AKI [14] (Table 1). AKI during CMS treatment was defined as a 1.5-fold or more increase in serum creatinine and/or a decrease in the GFR of 25% or more. These criteria needed to be fulfilled for at least 2 consecutive determinations 24 hours apart, after ≥ 4 days of CMS therapy. Patients who developed AKI were followed up for a period of 30 days after the end of CMS treatment to evaluate the reversibility of this toxicity. Patients who died or had no data during this period were excluded from this analysis.
Multivariate analysis of risk factors for colistin nephrotoxicity was constructed by using logistic regression. Univariate analyses were performed separately for each of the risk factor variables to ascertain the odds ratio and 95% confidence interval (CI). All clinically important covariates and those with a P value < 0.2 in the univariate analyses were included in the multivariate analysis. Since Cmax and Cmin values were almost equal, only one of these variables was included in the model.
The ROC curve was used to identify a categorical breakpoint for Cmin that would better identify patients who develop acute kidney injury (AKI) on day 7 and at the end of treatment. For all analyses, a two-sided P value < 0.05 was considered to be statistically significant. The Statistical Package for the Social Sciences (SPSS, version 15.0) was used for statistical analysis.

[3] = tested on: infections caused by MDR-GNB; assay: Clinical response to CMS treatment; assay type: in vivo, patients
Procedure: as §1
Data on demographic characteristics including age, gender, body weight, size, and body mass index were collected. Data on the indication for CMS, the administration schedule, the daily CMS dose recorded as millions of IU, the total cumulative CMS dose (millions of IU), and the duration of treatment were collected. Other data recorded included the presence of CKD at baseline, the Charlson score, the severity of disease at the time of the first CMS dose stratified according to the Acute Physiology and the Chronic Health Evaluation (APACHE) II [16]. The concomitant use of aminoglycosides, vancomycin, angiotensin II receptor blockers, angiotensin-converting enzyme inhibitors, loop diuretics, intravenous dye, amphotericin B, non-steroidal anti-inflammatory drugs (NSAIDs), the need for vasopressor drugs, and discontinuation of CMS treatment because of AKI were also recorded. The patient’s clinical status at the beginning of CMS treatment was defined as infection, severe sepsis and shock, according to the standard definition. Clinical response was defined as the resolution of signs, symptoms, and laboratory parameters that defined infection for each patient. The 30-day all-cause mortality was also recorded.

[4] = tested on: patients receiving intravenous colistin methanesulfonate sodium (CMS); assay: 30-day all-cause mortality; assay type: in vivo; settings: 102 patients on iv CMS
From the text: Data on demographic characteristics including age, gender, body weight, size, and body mass index were collected. Data on the indication for CMS, the administration schedule, the daily CMS dose recorded as millions of IU, the total cumulative CMS dose (millions of IU), and the duration of treatment were collected. Other data recorded included the presence of CKD at baseline, the Charlson score, the severity of disease at the time of the first CMS dose stratified according to the Acute Physiology and the Chronic Health Evaluation (APACHE) II [16]. The concomitant use of aminoglycosides, vancomycin, angiotensin II receptor blockers, angiotensin-converting enzyme inhibitors, loop diuretics, intravenous dye, amphotericin B, non-steroidal anti-inflammatory drugs (NSAIDs), the need for vasopressor drugs, and discontinuation of CMS treatment because of AKI were also recorded. The patient’s clinical status at the beginning of CMS treatment was defined as infection, severe sepsis and shock, according to the standard definition. Clinical response was defined as the resolution of signs, symptoms, and laboratory parameters that defined infection for each patient. The 30-day all-cause mortality was also recorded. […]

[5] = % of the 26 patients with nephrotoxicity at day 7
[6] = End of treatment, multivariate logistic regression

CC[C@H](C)CCCCC(=O)N[C@@H](CCN)C(=O)N[C@H](C(=O)N[C@@H](CCN)C(=O)N[C@H]1CCNC(=O)[C@H]([C@@H](C)O)NC(=O)[C@H](CCN)NC(=O)[C@H](CCN)NC(=O)[C@H](CC(C)C)NC(=O)[C@@H](CC(C)C)NC(=O)[C@H](CCN)NC1=O)[C@@H](C)O [colistin] (X1-[Dab]T[Dab][Dab][Dab][dL]L[Dab][Dab]T; lactam 4-C)
Cmax ([1]; 1 million IU/8 h, CMS 1 million IU/8 h (n = 28), steady state, 30 min after infusion, median (interquartile range), read-out: Cmax): 650 ng/mL
Cmax ([1]; 2 million IU/8 h, CMS 2 million IU/8 h (n = 42), steady state, 30 min after infusion, median (interquartile range), read-out: Cmax): 1130 ng/mL
Cmax ([1]; 3 million IU/8 h, CMS 3 million IU/8 h (n = 16), steady state, 30 min after infusion, median (interquartile range), read-out: Cmax): 1840 ng/mL
Cmax ([1]; CMS other doses (n = 16), steady state, 30 min after infusion, median (interquartile range), read-out: Cmax): 1500 ng/mL
Cmax ([1]; first value of pair, taken as patients without acute renal failure at baseline, read-out: Peak colistin plasma level): 1000 ng/mL
Cmax ([1]; second value of pair, taken as patients with acute renal failure at baseline, read-out: Peak colistin plasma level): 1820 ng/mL
level at 72 h ([1]; 1 million IU/8 h, CMS 1 million IU/8 h (n = 28), steady state trough, median (interquartile range), read-out: Cmin): 710 ng/mL
level at 72 h ([1]; 2 million IU/8 h, CMS 2 million IU/8 h (n = 42), steady state trough, median (interquartile range), read-out: Cmin): 1140 ng/mL
level at 72 h ([1]; 3 million IU/8 h, CMS 3 million IU/8 h (n = 16), steady state trough, median (interquartile range), read-out: Cmin): 1840 ng/mL
level at 72 h ([1]; CMS other doses (n = 16), steady state trough, median (interquartile range), read-out: Cmin): 1500 ng/mL
level at 72 h ([1]; first value of pair, taken as patients without acute renal failure at baseline, read-out: Trough colistin plasma level): 860 ng/mL
level at 72 h ([1]; second value of pair, taken as patients with acute renal failure at baseline, read-out: Trough colistin plasma level): 1790 ng/mL

colistin methanesulfonate sodium [CMS]
Patients who developed AKI needing renal replacement therapy ([2]; 53 patients with AKI): None
Nephrotoxicity at day 7: F (Failure) [2, 5]: 2 (7.6) n (%)
Nephrotoxicity at day 7: I (Injury) [2, 5]: 8 (30.7) n (%)
Nephrotoxicity at day 7: R (Risk) [2, 5]: 16 (61.5) n (%)
Nephrotoxicity at the end of treatment: I (Injury) ([2]; % of the 50 patients with nephrotoxicity at EOT): 23(46) n (%)
AKI at EOT ([2]; CMS 1 million IU/8 h (n = 28)): 14 (50) n (%)
AKI at day 7 ([2]; CMS 1 million IU/8 h (n = 28)): 5 (17.9) n (%)
AKI at EOT ([2]; CMS 2 million IU/8 h (n = 42)): 21 (50) n (%)
AKI at day 7 ([2]; CMS 2 million IU/8 h (n = 42)): 11 (26.2) n (%)
AKI at EOT ([2]; CMS 3 million IU/8 h (n = 16)): 9 (56.3) n (%)
AKI at day 7 ([2]; CMS 3 million IU/8 h (n = 16)): 7 (43.8) n (%)
AKI at EOT ([2]; CMS other doses (n = 16)): 6 (37.5) n (%)
AKI at day 7 ([2]; CMS other doses (n = 16)): 3 (18.8) n (%)
N° (%) of patients fulfilling criterion: ESKD (E) ([2]; Day 7 (n = 102)): 0 (0) N° (%)
N° (%) of patients fulfilling criterion: Failure (F) ([2]; Day 7 (n = 102)): 2 (2) N° (%)
N° (%) of patients fulfilling criterion: Injury (I) ([2]; Day 7 (n = 102)): 8 (7.8) N° (%)
N° (%) of patients fulfilling criterion: Loss (L) ([2]; Day 7 (n = 102)): 0 (0) N° (%)
N° (%) of patients fulfilling criterion: No injury ([2]; Day 7 (n = 102)): 76 (74.5) N° (%)
N° (%) of patients fulfilling criterion: Risk (R) ([2]; Day 7 (n = 102)): 16 (15.7) N° (%)
Odds ratio (95% CI) of CMS cumulative dose at day 7 for nephrotoxicity ([2]; Day 7, multivariate logistic regression): 0.99 (0.94-1.04)
N° (%) of patients fulfilling criterion: ESKD (E) ([2]; EOT (n = 102)): 0 (0) N° (%)
N° (%) of patients fulfilling criterion: Failure (F) ([2]; EOT (n = 102)): 13 (12.7) N° (%)
N° (%) of patients fulfilling criterion: Injury (I) ([2]; EOT (n = 102)): 23 (22.5) N° (%)
N° (%) of patients fulfilling criterion: Loss (L) ([2]; EOT (n = 102)): 0 (0) N° (%)
N° (%) of patients fulfilling criterion: No injury ([2]; EOT (n = 102)): 52 (51) N° (%)
N° (%) of patients fulfilling criterion: Risk (R) ([2]; EOT (n = 102)): 14 (13.7) N° (%)
Odds ratio (95% CI) of CMS cumulative dose for nephrotoxicity [2, 6]: 0.99 (0.98-1)
Odds ratio (95% CI) of CMS duration treatment for nephrotoxicity [2, 6]: 1.03 (0.98-1.08)
Patients with nephrotoxicity at day 7 ([2]; n=102, RIFLE criteria): 26 (25.5) n (%)
Patients with nephrotoxicity at the end of treatment ([2]; n=102, RIFLE criteria): 50 (49) n (%)
Clinical response ([3]; CMS 1 million IU/8 h (n = 28)): 25 (89.3) n (%)
Clinical response ([3]; CMS 2 million IU/8 h (n = 42)): 32 (76.2) n (%)
Clinical response ([3]; CMS 3 million IU/8 h (n = 16)): 11 (68.8) n (%)
Clinical response ([3]; CMS other doses (n = 16)): 11 (68.8) n (%)
Clinical response ([3]; all included patients n=102): 79 (77.5) n (%)
30-day all-cause mortality rate [4]: 32.4%
